Legend:
Type in all cases: biochemical
LRRK2 (G2019S) = LRRK2 (G2019S) (Homo sapiens, UniProt Q5S007, G2019S); test: LRRK2 G2019S enzyme inhibition, ADP-Glo kinase assay; design: purchased SignalChem L10-12GG
Procedure: (§1) In order to evaluate the inhibitory activity of the compounds according to the present invention on LRRK2, LRRK2 (G2019S), DYRK1, CLK1 and TTK kinases, the following experiment was performed.
Example compounds were reacted with the purified human LRRK2 G2019S (L10-12GG, SignalChem) enzyme to evaluate the enzyme inhibitory ability as follows. The reaction buffer was used as the composition of 40 mM Tris-HCl pH7.4, 20 mM MgCl2, 0.5 mg/ml BSA and 50 μM DTT, and the reaction of all test materials was performed on the reaction buffer. The compound was diluted with 10 mM DMSO stock in 12 steps by a serial dilution method, and the enzyme activity was measured at the final compound concentrations of 50, 10, 2, 0.4, 0.08, 0.016, 0.0032, 0.00064, 0.000128, 0.0000256, 0.00000512 and 0.000001024 μM. In the test, the human LRRK2 G2019S (16 ng) enzyme was reacted with the purified ATP (25 μM) and an enzyme substrate (0.2 μg) at 25° C. for 2 hours, and then the enzyme activity was identified using the in vitro ADP-Glo™ kinase assay (promega). The enzyme activity reaction liquid, an ADP-Glo reaction liquid and an enzyme potency detection solution were reacted in a ratio of 2:2:1, and the degree of inhibition of enzyme activity was measured by Luminescence. The degree of inhibition of enzyme activity according to the treatment concentrations of the respective compounds was calculated based on the fluorescence of the enzyme activity of a solvent control group that was not treated with the compound, where the concentration of each compound to inhibit enzyme activity inhibition by 50% was determined as an IC50 (nM) value and obtained using Prism (Version 5.01, GraphPad) software.
(§2) In the table below, the following designations were used for the evaluation of enzyme inhibitory ability.

human GST-CLK1 (129-end) = target: T1, human GST-CLK1 (129-end) (Homo sapiens, UniProt P49759); test: GST-CLK1 enzyme inhibition, ADP-Glo kinase assay; details: ATP 10 uM
T1 construct: purified human GST-CLK1 (129-end, Signalchem) enzyme; GST; purchased Signalchem
Procedure: as §1
(§3) Example compounds were reacted with the purified human GST-CLK1 (129-end, Signalchem) enzyme to evaluate the enzyme inhibitory ability as follows. As the reaction buffer, the composition of 40 mM Tris-HCl pH 7.4, 20 mM MgCl2, 0.5 mg/mL BSA, and 50 uM DTT was used, and the reaction of all test materials was performed on the reaction buffer. During the test, the human GST-CLK1 (129-end, 3 ng) enzyme, the purified ATP (10 uM), and a specific substrate solution were reacted at 25° C. for 1 hour, and then the enzyme activity was identified using the in vitro ADP-Glo™ kinase assay (promega). Luminescence was measured by reacting the enzyme activity reaction solution, an ADP-Glo reaction solution and the enzyme potency detection solution in a ratio of 2:2:1. The degree of inhibition of enzyme activity according to the treatment concentrations of the respective compounds was calculated based on the fluorescence of the enzyme activity of a solvent control group that was not treated with the compound, where the concentration of each compound to inhibit enzyme activity inhibition by 50% was determined as an IC50 (nM) value. The IC50 of each compound was determined in triplicate data sets and obtained using Prism (version 7.01, GraphPad) software.
as §2

[1] = target: T2, human GST-DYRK1A (full length) (Homo sapiens, UniProt Q13627); test: GST-DYRK1A enzyme inhibition, ADP-Glo kinase assay; details: read-out: DYRK1 IC50
T2 construct: purified human GST-DYRK1A (full length, Thermo scientifics) enzyme; GST; purchased Thermo scientifics
Procedure: as §1
as §3, with “GST-DYRK1A (full length, Thermo scientifics)” for “GST-CLK1 (129-end, Signalchem)”, “GST-DYRK1A (full length, 10” for “GST-CLK1 (129-end, 3”
as §2

LRRK2 (G2019S), sequence (Q5S007 970-2527 G2019S limits assumed): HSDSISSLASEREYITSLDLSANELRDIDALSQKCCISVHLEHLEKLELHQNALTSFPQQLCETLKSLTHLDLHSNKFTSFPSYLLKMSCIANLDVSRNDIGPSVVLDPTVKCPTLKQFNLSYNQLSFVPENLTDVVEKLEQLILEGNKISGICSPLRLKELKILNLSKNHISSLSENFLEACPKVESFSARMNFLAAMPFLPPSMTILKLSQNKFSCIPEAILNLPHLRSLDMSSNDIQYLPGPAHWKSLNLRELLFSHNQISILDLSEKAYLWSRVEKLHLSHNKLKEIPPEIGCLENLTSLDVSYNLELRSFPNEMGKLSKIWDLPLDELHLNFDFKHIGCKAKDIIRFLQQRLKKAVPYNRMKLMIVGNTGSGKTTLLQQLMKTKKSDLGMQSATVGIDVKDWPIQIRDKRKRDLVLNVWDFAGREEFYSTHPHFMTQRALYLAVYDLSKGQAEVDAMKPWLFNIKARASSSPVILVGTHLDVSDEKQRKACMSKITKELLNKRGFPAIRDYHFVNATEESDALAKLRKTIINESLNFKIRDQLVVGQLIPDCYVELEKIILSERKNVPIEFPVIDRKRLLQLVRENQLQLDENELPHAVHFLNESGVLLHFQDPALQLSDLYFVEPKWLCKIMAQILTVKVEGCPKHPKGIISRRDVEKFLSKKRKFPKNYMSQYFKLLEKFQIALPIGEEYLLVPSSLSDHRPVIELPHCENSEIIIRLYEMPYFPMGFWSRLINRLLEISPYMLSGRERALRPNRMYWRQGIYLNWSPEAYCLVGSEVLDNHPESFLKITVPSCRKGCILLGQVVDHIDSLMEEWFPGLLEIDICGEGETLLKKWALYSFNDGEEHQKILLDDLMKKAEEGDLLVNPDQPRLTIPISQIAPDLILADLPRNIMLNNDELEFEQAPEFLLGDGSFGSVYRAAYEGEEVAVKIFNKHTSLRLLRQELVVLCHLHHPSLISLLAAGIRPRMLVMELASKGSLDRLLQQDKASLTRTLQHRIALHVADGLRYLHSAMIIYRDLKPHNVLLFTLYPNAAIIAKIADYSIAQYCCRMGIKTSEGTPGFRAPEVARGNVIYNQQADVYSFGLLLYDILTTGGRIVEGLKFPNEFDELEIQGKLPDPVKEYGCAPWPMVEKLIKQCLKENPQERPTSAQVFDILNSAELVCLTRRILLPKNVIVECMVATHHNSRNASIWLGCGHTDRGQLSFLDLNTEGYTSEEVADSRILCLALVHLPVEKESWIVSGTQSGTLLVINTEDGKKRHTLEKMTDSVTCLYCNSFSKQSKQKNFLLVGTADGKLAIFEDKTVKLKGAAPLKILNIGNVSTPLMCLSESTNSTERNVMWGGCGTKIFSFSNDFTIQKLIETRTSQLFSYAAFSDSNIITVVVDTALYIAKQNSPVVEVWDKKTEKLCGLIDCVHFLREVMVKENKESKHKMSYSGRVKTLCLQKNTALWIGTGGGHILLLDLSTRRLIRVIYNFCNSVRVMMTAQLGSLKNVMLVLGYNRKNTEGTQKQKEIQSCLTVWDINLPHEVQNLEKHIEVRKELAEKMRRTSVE
T1 sequence (P49759 129-484 limits assumed): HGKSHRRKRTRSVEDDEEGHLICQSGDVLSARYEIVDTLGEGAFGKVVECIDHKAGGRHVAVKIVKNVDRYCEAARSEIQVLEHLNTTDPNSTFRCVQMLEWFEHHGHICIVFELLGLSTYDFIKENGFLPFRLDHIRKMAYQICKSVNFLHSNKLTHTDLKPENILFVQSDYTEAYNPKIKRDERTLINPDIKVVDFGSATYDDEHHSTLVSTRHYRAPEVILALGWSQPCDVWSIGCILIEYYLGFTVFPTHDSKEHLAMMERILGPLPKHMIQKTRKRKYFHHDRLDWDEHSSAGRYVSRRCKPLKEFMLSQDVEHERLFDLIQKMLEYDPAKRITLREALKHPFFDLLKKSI

Q: What does the source list for COc1cc(S(=O)(=O)N2CCC(N3CCOCC3)CC2)ccc1Nc1cc(NC2CC2)c2cc[nH]c2n1 [Example 22, N^4-cyclopropyl-N^6-(2-methoxy-4-((4-morpholinopiperidin-1-yl)sulfonyl)phenyl)-1H-pyrrolo[2,3-b]pyridine-4,6-diamine]?
A: IC50 (LRRK2 (G2019S)): < 100 nM; IC50 (human GST-CLK1 (129-end)): 301 to 1000 nM; IC50 [1]: 301 to 1000 nM

Q: How did the IC50 (LRRK2 (G2019S)) turn out when COc1cc(S(=O)(=O)N2CCC(N3CCOCC3)CC2)ccc1Nc1cc(NC2CCCCC2)c2cc[nH]c2n1 [Example 23, N^4-cyclohexyl-N^6-(2-methoxy-4-((4-morpholinopiperidin-1-yl)sulfonyl)phenyl)-1H-pyrrolo[2,3-b]pyridine-4,6-diamine] was run?
A: 301 to 1000 nM

Q: And the IC50 (human GST-CLK1 (129-end))?
A: 301 to 1000 nM

Q: What about the IC50 [1] of the same compound?
A: 301 to 1000 nM

Q: What does the source list for COc1cc(S(=O)(=O)N2CCC(N3CCOCC3)CC2)ccc1Nc1cc(NCCS(C)(=O)=O)c2cc[nH]c2n1 [Example 24, N^6-(2-methoxy-4-((4-morpholinopiperidin-1-yl)sulfonyl)phenyl)-N^4-(2-(methylsulfonyl)ethyl)-1H-pyrrolo[2,3-b]pyridine-4,6-diamine]?
A: IC50 (LRRK2 (G2019S)): < 100 nM; IC50 (human GST-CLK1 (129-end)): 301 to 1000 nM; IC50 [1]: 301 to 1000 nM

Q: Which results are given for COc1cc(S(C)(=O)=O)ccc1Nc1cc(NC2CCCCC2)c2cc[nH]c2n1 [Example 30, N^4-cyclohexyl-N^6-(2-methoxy-4-(methylsulfonyl)phenyl)-1H-pyrrolo[2,3-b]pyridine-4,6-diamine]?
A: IC50 (LRRK2 (G2019S)): 301 to 1000 nM; IC50 (human GST-CLK1 (129-end)): 301 to 1000 nM; IC50 [1]: 301 to 1000 nM

Q: With COc1cc(S(C)(=O)=O)ccc1Nc1cc(NCCS(C)(=O)=O)c2cc[nH]c2n1 [Example 31, N^6-(2-methoxy-4-(methylsulfonyl)phenyl)-N^4-(2-(methylsulfonyl)ethyl)-1H-pyrrolo[2,3-b]pyridine-4,6-diamine] as the compound, how does the IC50 (LRRK2 (G2019S)) read?
A: 301 to 1000 nM

Q: What about the IC50 (human GST-CLK1 (129-end)) of the same compound?
A: 301 to 1000 nM

Q: What about the IC50 [1] of the same compound?
A: 301 to 1000 nM

Q: What does the source list for CNc1cc(Nc2ccc(C(=O)N3CCOCC3)c3c2OCCO3)nc2[nH]cc(Cl)c12 [Example 56, (8-((3-chloro-4-(methylamino)-1H-pyrrolo[2,3-b]pyridin-6-yl)amino)-2,3-dihydrobenzo[b] [1,4]dioxin-5-yl)(morpholino) methanone 2,2,2-trifluoroacetate]?
A: IC50 (LRRK2 (G2019S)): < 100 nM; IC50 (human GST-CLK1 (129-end)): 301 to 1000 nM; IC50 [1]: 301 to 1000 nM

Q: Which IC50 (LRRK2 (G2019S)) does the source give for CCNc1cc(Nc2ccc(C(=O)N3CCOCC3)c3c2OCCO3)nc2[nH]cc(Cl)c12 [Example 57, (8-((3-chloro-4-(ethylamino)-1H-pyrrolo[2,3-b]pyridin-6-yl)amino)-2,3-dihydrobenzo[b] [1,4]dioxin-5-yl)(morpholino) methanone] here?
A: < 100 nM

Q: And the IC50 (human GST-CLK1 (129-end))?
A: 301 to 1000 nM

Q: What about the IC50 [1] of the same compound?
A: 301 to 1000 nM

Q: CCCNc1cc(Nc2ccc(C(=O)N3CCOCC3)c3c2OCCO3)nc2[nH]cc(Cl)c12 [Example 58, (8-((3-chloro-4-(propylamino)-1H-pyrrolo[2,3-b]pyridin-6-yl)amino)-2,3-dihydrobenzo[b] [1,4]dioxin-5-yl)(morpholino) methanone] was tested. Which IC50 (LRRK2 (G2019S)) did it give?
A: < 100 nM

Q: And the IC50 (human GST-CLK1 (129-end))?
A: 301 to 1000 nM

Q: What about the IC50 [1] of the same compound?
A: 301 to 1000 nM

Q: With CC(C)Nc1cc(Nc2ccc(C(=O)N3CCOCC3)c3c2OCCO3)nc2[nH]cc(Cl)c12 [Example 59, (8-((3-chloro-4-(isopropylamino)-1H-pyrrolo[2,3-b]pyridin-6-yl)amino)-2,3-dihydrobenzo [b] [1,4]dioxin-5-yl)(morpholino) methanone] as the compound, how does the IC50 (LRRK2 (G2019S)) read?
A: 301 to 1000 nM

Q: And the IC50 (human GST-CLK1 (129-end))?
A: 301 to 1000 nM

Q: And the IC50 [1]?
A: 301 to 1000 nM

Q: What does the source list for O=C(c1ccc(Nc2cc(NC3CC3)c3c(Cl)c[nH]c3n2)c2c1OCCO2)N1CCOCC1 [Example 60, (8-((3-chloro-4-(cyclopropylamino)-1H-pyrrolo[2,3-b]pyridin-6-yl)amino)-2,3-dihydrobenzo [b] [1,4]dioxin-5-yl)(morpholino) methanone]?
A: IC50 (LRRK2 (G2019S)): < 100 nM; IC50 (human GST-CLK1 (129-end)): 301 to 1000 nM; IC50 [1]: 301 to 1000 nM

Q: What does the source list for CS(=O)(=O)CCNc1cc(Nc2ccc(C(=O)N3CCOCC3)c3c2OCCO3)nc2[nH]cc(Cl)c12 [Example 63, (8-((3-chloro-4-((2-(methylsulfonyl)ethyl)amino)-1H-pyrrolo[2,3-b]pyridin-6-yl)amino)-2,3-dihydrobenzo[b] [1,4]dioxin-5-yl)(morpholino) methanone]?
A: IC50 (LRRK2 (G2019S)): < 100 nM; IC50 (human GST-CLK1 (129-end)): 301 to 1000 nM; IC50 [1]: 301 to 1000 nM

Q: Which IC50 (LRRK2 (G2019S)) does the source give for CCCNc1cc(Nc2ccc(S(=O)(=O)N3CCOCC3)cc2OC)nc2[nH]cc(Cl)c12 [Example 66, 3-chloro-N^6-(2-methoxy-4-(morpholinosulfonyl)phenyl)-N^4-propyl-1H-pyrrolo[2,3-b]pyridine-4,6-diamine] here?
A: 301 to 1000 nM

Q: What about the IC50 (human GST-CLK1 (129-end)) of the same compound?
A: 301 to 1000 nM

Q: What about the IC50 [1] of the same compound?
A: 301 to 1000 nM

Q: For COc1cc(S(=O)(=O)N2CCOCC2)ccc1Nc1cc(NC(C)C)c2c(Cl)c[nH]c2n1 [Example 67, 3-chloro-N^4-isopropyl-N^6-(2-methoxy-4-(morpholinosulfonyl)phenyl)-1H-pyrrolo[2,3-b]pyridine-4,6-diamine], which IC50 (LRRK2 (G2019S)) is on record?
A: 301 to 1000 nM

Q: And the IC50 (human GST-CLK1 (129-end))?
A: 301 to 1000 nM

Q: What about the IC50 [1] of the same compound?
A: 301 to 1000 nM

Q: COc1cc(S(=O)(=O)N2CCOCC2)ccc1Nc1cc(NC2CC2)c2c(Cl)c[nH]c2n1 [Example 68, 3-chloro-N^4-cyclopropyl-N^6-(2-methoxy-4-(morpholinosulfonyl)phenyl)-1H-pyrrolo[2,3-b]pyridine-4,6-diamine] was tested. Which IC50 (LRRK2 (G2019S)) did it give?
A: 301 to 1000 nM

Q: What about the IC50 (human GST-CLK1 (129-end)) of the same compound?
A: 301 to 1000 nM

Q: What about the IC50 [1] of the same compound?
A: 301 to 1000 nM

Q: Which results are given for COc1cc(S(=O)(=O)N2CCOCC2)ccc1Nc1cc(NCCS(C)(=O)=O)c2c(Cl)c[nH]c2n1 [Example 72, 3-chloro-N^6-(2-methoxy-4-(morpholinosulfonyl)phenyl)-N^4-(2-(methylsulfonyl)ethyl)-1H-pyrrolo[2,3-b]pyridine-4,6-diamine]?
A: IC50 (LRRK2 (G2019S)): 301 to 1000 nM; IC50 (human GST-CLK1 (129-end)): 301 to 1000 nM; IC50 [1]: 301 to 1000 nM

Q: With CNc1cc(Nc2ccc(S(=O)(=O)N3CCC(N4CCOCC4)CC3)cc2OC)nc2[nH]cc(Cl)c12 [Example 73, 3-chloro-N^6-(2-methoxy-4-((morpholinopiperidin-1-yl)sulfonyl)phenyl)-N^4-methyl-1H-pyrrolo[2,3-b]pyridine-4,6-diamine] as the compound, how does the IC50 (LRRK2 (G2019S)) read?
A: < 100 nM

Q: And the IC50 (human GST-CLK1 (129-end))?
A: 301 to 1000 nM

Q: And the IC50 [1]?
A: 301 to 1000 nM

Q: CCNc1cc(Nc2ccc(S(=O)(=O)N3CCC(N4CCOCC4)CC3)cc2OC)nc2[nH]cc(Cl)c12 [Example 74, 3-chloro-N^4-ethyl-N^6-(2-methoxy-4-((morpholinopiperidin-1-yl)sulfonyl)phenyl)-1H-pyrrolo[2,3-b]pyridine-4,6-diamine] was tested. Which IC50 (LRRK2 (G2019S)) did it give?
A: 101 to 300 nM

Q: And the IC50 (human GST-CLK1 (129-end))?
A: 301 to 1000 nM

Q: And the IC50 [1]?
A: 301 to 1000 nM

Q: With COc1cc(S(=O)(=O)N2CCC(N3CCOCC3)CC2)ccc1Nc1cc(NC(C)C)c2c(Cl)c[nH]c2n1 [Example 75, 3-chloro-N^4-isopropyl-N^6-(2-methoxy-4-((morpholinopiperidin-1-yl)sulfonyl)phenyl)-1H-pyrrolo[2,3-b]pyridine-4,6-diamine] as the compound, how does the IC50 (LRRK2 (G2019S)) read?
A: < 100 nM

Q: What about the IC50 (human GST-CLK1 (129-end)) of the same compound?
A: 301 to 1000 nM

Q: And the IC50 [1]?
A: 301 to 1000 nM

Q: For COc1cc(S(=O)(=O)N2CCC(N3CCOCC3)CC2)ccc1Nc1cc(NC2CC2)c2c(Cl)c[nH]c2n1 [Example 76, 3-chloro-N^4-cyclopropyl-N^6-(2-methoxy-4-((morpholinopiperidin-1-yl)sulfonyl)phenyl)-1H-pyrrolo[2,3-b]pyridine-4,6-diamine], which IC50 (LRRK2 (G2019S)) is on record?
A: < 100 nM

Q: What about the IC50 (human GST-CLK1 (129-end)) of the same compound?
A: 301 to 1000 nM

Q: What about the IC50 [1] of the same compound?
A: 301 to 1000 nM
